TGI and GI50 data for five compounds are collected here from PubChem BioAssay (NCI).

Some test systems named below: EKVX NSCLC; HOP-18 NSCLC; SF-268 CNS; SR leukemia; UO-31 renal; U251 CNS; MALME-3M melanoma; DMS 273 small cell lung; UACC-257 melanoma; SNB-75 CNS; OVCAR-8 ovarian; LXFL 529 NSCLC; SW-620 colon; NCI-H226 lung; NCI/ADR-RES ovarian; MCF7 breast; SK-MEL-28 melanoma; COLO 205 colon; DU-145 prostate.
What all share (experiment): NCI tumour cell line growth inhibition, 48 h

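Interpolation was linear, between the two tested concentrations surrounding the appropriate level; five concentrations were tested over 48 hours in 96-well plates. Abbreviation: GI50, concentration required for 50% inhibition of growth. TGI is the concentration that stops growth completely.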

Turning to `C=CCc1c(O)c2c(c3oc(=O)cc(C)c13)CC(C)O2` (stereo not given), the TGI in the assay on EKVX NSCLC, in the assay with HOP-18 NSCLC, in the assay with SF-268 CNS, in the assay with SR leukemia, in the assay with UO-31 renal and with U251 CNS was greater than 100 µM each time. The TGI in the assay on MALME-3M melanoma, in the assay on DMS 273 small cell lung, in the assay on UACC-257 melanoma, with SNB-75 CNS, with OVCAR-8 ovarian and in the assay with LXFL 529 NSCLC was greater than 100 µM each time. Also, the TGI in the assay with SW-620 colon and in the assay on NCI-H226 lung was greater than 100 µM throughout.
With `O=c1cc[nH]c(=O)[nH]1`, the TGI was greater than 562 µM in the assay with NCI/ADR-RES ovarian; 488 µM with EKVX NSCLC; greater than 1000 µM in the assay on HOP-18 NSCLC; greater than 1000 µM with SF-268 CNS; greater than 1000 µM in the assay on UO-31 renal; greater than 1000 µM in the assay on U251 CNS. Also, the TGI in the assay with MALME-3M melanoma is greater than 1000 µM; in the assay with DMS 273 small cell lung, greater than 729 µM; with UACC-257 melanoma, greater than 1000 µM; with SNB-75 CNS, greater than 953 µM; with OVCAR-8 ovarian, greater than 1000 µM; in the assay with MCF7 breast, greater than 1000 µM. The TGI with SK-MEL-28 melanoma was greater than 900 µM; in the assay with SW-620 colon it was greater than 1000 µM; in the assay on COLO 205 colon it was 384 µM; in the assay on NCI-H226 lung it was 990 µM. Besides, the GI50 in the assay on MALME-3M melanoma was greater than 851 µM.
Turning to `NC(CCCCCP(=O)(c1ccccc1)C1C=CC=CC1)C(=O)O` (stereo not given), the TGI in the assay with NCI/ADR-RES ovarian, in the assay on EKVX NSCLC, in the assay on SF-268 CNS, with SR leukemia, in the assay with UO-31 renal and with U251 CNS was greater than 100 µM each time. For the same compound, the TGI in the assay on UACC-257 melanoma, in the assay with SNB-75 CNS, in the assay on OVCAR-8 ovarian, in the assay on MCF7 breast, with SK-MEL-28 melanoma and in the assay on DU-145 prostate was greater than 100 µM each time. Also, the TGI in the assay on SW-620 colon and in the assay on COLO 205 colon was greater than 100 µM in each case.
For `O=c1sc2ccccc2n1CC1CS1` (stereo not given), the TGI with EKVX NSCLC, in the assay with SF-268 CNS, in the assay on SR leukemia, in the assay with UO-31 renal, with MALME-3M melanoma and with DMS 273 small cell lung was greater than 100 µM each time. Moreover, the TGI in the assay on OVCAR-8 ovarian, in the assay on SK-MEL-28 melanoma, with SW-620 colon, in the assay on COLO 205 colon and in the assay with NCI-H226 lung was greater than 100 µM in each case.
As for `CC(=O)OC1/C=C(\C)C(OC(C)=O)C/C=C(/C)CCC2C(/C=C/C1=O)C2(C)C` (stereo not given), the TGI with EKVX NSCLC, in the assay on HOP-18 NSCLC, with SF-268 CNS, in the assay with UO-31 renal, in the assay with U251 CNS and in the assay with MALME-3M melanoma was greater than 100 µM throughout. In addition, the TGI in the assay with UACC-257 melanoma is greater than 100 µM; in the assay with SNB-75 CNS it was 93.1 µM; in the assay with OVCAR-8 ovarian, greater than 100 µM; with LXFL 529 NSCLC it was greater than 100 µM; with SK-MEL-28 melanoma, greater than 100 µM; with SW-620 colon, greater than 100 µM. The TGI in the assay with COLO 205 colon and in the assay with NCI-H226 lung was greater than 100 µM in each case.
